Results as given in ChEMBL document CHEMBL3045173, “Synthesis, antibacterial, and antitubercular studies of some novel isatin derivatives” (2012).
In brackets after ≈: the same amount, converted by molar mass.

Columns and labels:
Assay type in all cases: functional
[1] = system: Mycobacterium tuberculosis; experiment: Antimicrobial activity against Mycobacterium tuberculosis H37Rv ATCC 27294 after 7 days by MABA; details: for MIC90: Mycobacterium tuberculosis, H37Rv ATCC 27294, 168 h
[2] = system: Staphylococcus epidermidis; experiment: Antimicrobial activity against Staphylococcus epidermidis ATCC 155 at 100 ug/ml after 24 hr by paper disk diffusion method; details: ATCC 155, 24 h, read-out: IZ
[3] = system: Staphylococcus epidermidis; experiment: Antimicrobial activity against Staphylococcus epidermidis ATCC 155 after 24 hr by agar streak dilution method; details: ATCC 155, 24 h
Bacillus cereus [4] = experiment: Antimicrobial activity against Bacillus cereus ATCC 11778 after 24 hr by agar streak dilution method; details: ATCC 11778, 24 h
Micrococcus luteus [5] = experiment: Antimicrobial activity against Micrococcus luteus ATCC 4698 at 100 ug/ml after 24 hr by paper disk diffusion method; details: ATCC 4698, 24 h, read-out: IZ
Micrococcus luteus [6] = experiment: Antimicrobial activity against Micrococcus luteus ATCC 4698 after 24 hr by agar streak dilution method; details: ATCC 4698, 24 h
Staphylococcus aureus [7] = experiment: Antimicrobial activity against Staphylococcus aureus ATCC 9144 after 24 hr by agar streak dilution method; details: ATCC 9144, 24 h
Staphylococcus aureus [8] = experiment: Antimicrobial activity against Staphylococcus aureus ATCC 9144 at 100 ug/ml after 24 hr by paper disk diffusion method; details: ATCC 9144, 24 h, read-out: IZ
Bacillus cereus [9] = experiment: Antimicrobial activity against Bacillus cereus ATCC 11778 at 100 ug/ml after 24 hr by paper disk diffusion method; details: ATCC 11778, 24 h, read-out: IZ

| Structure (SMILES) | inhibition (INH) [1] [%] | MIC90 [1] [µM] | zone of inhibition at 100 µg/mL [2] [mm] | MIC [3] [mg/L] | MIC (Bacillus cereus [4]) [mg/L] | zone of inhibition at 100 µg/mL (Micrococcus luteus [5]) [mm] | MIC (Micrococcus luteus [6]) [mg/L] | MIC (Staphylococcus aureus [7]) [mg/L] | zone of inhibition at 100 µg/mL (Staphylococcus aureus [8]) [mm] | zone of inhibition at 100 µg/mL (Bacillus cereus [9]) [mm] |
| --- | --- | --- | --- | --- | --- | --- | --- | --- | --- | --- |
| NNC(=O)c1ccncc1 [ISONIAZID] | 100 | 0.74 (≈ 0.101 µg/mL) | – | – | – | – | – | – | – | – |
| O=C1/C(=N\c2ccc(/N=C/c3ccc(Cl)cc3)cc2)c2ccccc2N1Cc1ccccc1 | 90 | – | 25 | 9.8 (≈ 21.8 µM) | 12.1 (≈ 26.9 µM) | 23 | 11.2 (≈ 24.9 µM) | 10.4 (≈ 23.1 µM) | 21 | 19 |
| COc1ccc(/C=N/c2ccc(/N=C3\C(=O)N(Cc4ccccc4)c4ccccc43)cc2)cc1 | 80 | – | 23 | 14.8 (≈ 33.2 µM) | 17.1 (≈ 38.4 µM) | 20 | 12.4 (≈ 27.8 µM) | 13.6 (≈ 30.5 µM) | 19 | 17 |
| COc1c(N2C[C@@H]3CCCN[C@@H]3C2)c(F)cc2c(=O)c(C(=O)O)cn(C3CC3)c12 [MOXIFLOXACIN] | 100 | 0.25 (≈ 0.1 µg/mL) | – | – | – | – | – | – | – | – |
| CO[C@H]1/C=C/O[C@@]2(C)Oc3c(C)c(O)c4c(O)c(c(/C=N/N5CCN(C)CC5)c(O)c4c3C2=O)NC(=O)/C(C)=C\C=C\[C@H](C)[C@H](O)[C@@H](C)[C@@H](O)[C@@H](C)[C@H](OC(C)=O)[C@@H]1C [RIFAMPIN] | 100 | 0.06 (≈ 0.0494 µg/mL) | – | – | – | – | – | – | – | – |
| COc1ccc(/C=N/c2ccc(/N=C3\C(=O)N(Cc4ccccc4)c4ccccc43)cc2)cc1OC | 73 | – | 18 | 20.2 (≈ 42.5 µM) | 21.2 (≈ 44.6 µM) | 17 | 19.6 (≈ 41.2 µM) | 11.8 (≈ 24.8 µM) | 22 | 16 |
| O=C1/C(=N\c2ccc(/N=C/c3ccccc3O)cc2)c2ccccc2N1Cc1ccccc1 | 90 | – | 20 | 17.6 (≈ 40.8 µM) | 16.7 (≈ 38.7 µM) | 17 | 20.6 (≈ 47.7 µM) | 13.2 (≈ 30.6 µM) | 20 | 18 |
| O=[N+]([O-])c1cn2c(n1)OC[C@@H](OCc1ccc(OC(F)(F)F)cc1)C2 [PRETOMANID] | 100 | 0.25 (≈ 0.0898 µg/mL) | – | – | – | – | – | – | – | – |
| O=C1/C(=N\c2ccc(/N=C/c3ccc([N+](=O)[O-])cc3)cc2)c2ccccc2N1Cc1ccccc1 | 80 | – | 19 | 20.4 (≈ 44.3 µM) | 19.2 (≈ 41.7 µM) | 13 | 27.8 (≈ 60.4 µM) | 25.2 (≈ 54.7 µM) | 15 | 16 |
| CN(C)c1ccc(/C=N/c2ccc(/N=C3\C(=O)N(Cc4ccccc4)c4ccccc43)cc2)cc1 | 79 | – | 14 | 24 (≈ 52.3 µM) | 20.7 (≈ 45.1 µM) | 18 | 19.7 (≈ 43 µM) | 22.8 (≈ 49.7 µM) | 17 | 15 |
| O=C(O)c1cn(C2CC2)c2cc(N3CCNCC3)c(F)cc2c1=O [CIPROFLOXACIN] | – | – | 29 | 0.35 (≈ 1.06 µM) | 0.3 (≈ 0.905 µM) | 30 | 0.1 (≈ 0.302 µM) | 0.2 (≈ 0.604 µM) | 25 | 25 |
| COc1cc(/C=N/c2ccc(/N=C3\C(=O)N(Cc4ccccc4)c4ccccc43)cc2)ccc1O | 80 | – | 22 | 13.8 (≈ 29.9 µM) | 18.6 (≈ 40.3 µM) | 19 | 18.7 (≈ 40.5 µM) | 18.2 (≈ 39.4 µM) | 19 | 17 |
| O=C1/C(=N\c2ccc(/N=C/c3ccc(Br)cc3)cc2)c2ccccc2N1Cc1ccccc1 | 96 | 4.26 (≈ 2.11 µg/mL) | 18 | 21.2 (≈ 42.9 µM) | 15.3 (≈ 30.9 µM) | 20 | 16.3 (≈ 33 µM) | 19.3 (≈ 39 µM) | 19 | 17 |
